Test [1] concerns the target T1, GPR139 (Homo sapiens, UniProt Q6DWJ6).
T1 sequence (Q6DWJ6 1-353): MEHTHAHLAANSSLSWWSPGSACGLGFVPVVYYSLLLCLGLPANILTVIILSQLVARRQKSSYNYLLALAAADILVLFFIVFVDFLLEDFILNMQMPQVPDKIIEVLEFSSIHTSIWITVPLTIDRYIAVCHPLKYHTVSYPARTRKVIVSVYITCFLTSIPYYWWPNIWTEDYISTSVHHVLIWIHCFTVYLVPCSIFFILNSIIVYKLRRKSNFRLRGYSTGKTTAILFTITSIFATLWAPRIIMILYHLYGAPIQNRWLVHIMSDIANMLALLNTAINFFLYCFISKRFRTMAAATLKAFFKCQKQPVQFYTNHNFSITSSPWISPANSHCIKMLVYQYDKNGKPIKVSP
The arrangement: method as in ref 11 (Shi et al.). The conditions noted are these: ref 11 (Shi et al.), cited from earlier work; for EC50: GPR139 agonist potency.

The target in test [2] is T1, GPR139. The arrangement: method as in ref 13, 14 (Dvorak et al.). Conditions: 14 (Dvorak et al.), cited from earlier work; for Emax: relative to L-Trp; for EC50: mean of at least three experiments.
The target in test [3] is T1, GPR139. The experiment in a line: Fluo-4 Ca2+-assay in CHO-k1 cells stably expressing GPR139 (CHO-GPR139). It is filed as cell-based. The conditions noted are these: for Emax: CHO-K1, relative to 1a. As to the method:
Compound 1a[11] was kindly provided by H. Lundbeck A/S, Denmark. Compound 7c (Enamine no: Z31449867) was tested as a racemate, as the (S)-form described by Janssen et al. was not commercially available. All compounds were dissolved to 20 mM in DMSO (Sigma, D2650) and subsequently diluted in a HEPES buffer (HBSS (Invitrogen, 14025) supplemented with 20 mM HEPES + 1 mM MgCl2 + 1 mM CaCl2, pH = 7.4) to a final concentration 0.5% DMSO in the assay. The DMSO level was kept constant for all concentrations of all compounds. DMSO was confirmed not to have any activity by itself at this concentration. L-Tryptophan (T0254) and L-Phenylalanine (P2126) were obtained from Sigma-Aldrich and dissolved directly in buffer.
All compounds were tested on a CHO-k1 cell line stably expressing GPR139 (CHO-GPR139) kindly provided by H. Lundbeck A/S, Denmark, and also on a CHO-k1 cell line stably expressing the M1 receptor (CHO-M1) (The Missouri S&T cDNA Resource Center, #CEM100TN00) to check for specificity. The CHO-GPR139 was grown in Dulbecco’s modified eagle medium (DMEM) F12-Kaighn’s (Gibco, 21127) supplemented with 10% dialysed fetal bovine serum (Gibco, 26400, United States origin), 1% GlutaMAX^TM-I (100X) (Gibco, 35050), and 100 units/mL penicillin and 100 μg/mL streptomycin (Gibco, 15140) and 1.0 mg/mL geneticin (Invitrogen, 1181103). CHO-M1 was grown in Ham’s F12 (Gibco, 21765) supplemented with 10% fetal bovine serum (Gibco, 10270, South America origin) +100 units/mL penicillin and 100 μg/mL streptomycin (Invitrogen, 15140–122) and 0,25 mg/mL geneticin (Life Technologies, 11811–031). Compound 1a and carbamoylcholine chloride (Sigma-Aldrich, C4382) were used as positive controls in the two cell lines, respectively.
30.000 cells/well were plated in black 96-well plates with flat clear bottoms (Corning, Falcon, 353219) and incubated overnight. The Fluo-4 dye loading solution (Invitrogen, F36206) was prepared according to the manufacturer’s instructions by dissolving it in HEPES buffer supplemented with 2.5 mM probenecid. 50 μL dye loading solution was added to each well. Cells were incubated with the Fluo-4 dye for 60 min at 37 °C, then washed with 100 μL HEPES buffer. 100 μL HEPES buffer supplemented with 2.5 mM probenecid was then added to each well and incubated in 10 minutes at 37 °C before measurement. 33 μL of the test compounds (4x concentrated) were added automatically after baseline measurements. Intracellular calcium change was recorded on a NOVOstar instrument (BMG Labtech) at 37 °C with an excitation filter of 485 nm and an emission filters 520 nm. Data originate from three independent experiments in triplicates.

Setting [4] is: CHO-GPR139, mean of at least three experiments.

The text below walks through data of paper PMC5103216, “Novel Agonist Bioisosteres and Common Structure-Activity Relationships for The Orphan G Protein-Coupled Receptor GPR139” (Scientific Reports, 2016).

In general, EC50 refers to the concentration at which the effect is half-maximal. A word on the Emax: it is the size of the effect at its maximum, as opposed to the concentration needed.

Molecules are shown by their SMILES. Entries after “also recorded” stand apart in the source; their conditions may differ. Read-outs that look alike come from different tables or passages of the source.

For `O=C(NNC(=O)c1ccccc1)Nc1cccc2ccccc12` [1b], in test [1], the EC50 is 2.4 µM and the Emax is 85%.
As to `CCOc1ccccc1C(=O)NNC(=O)Nc1cccc2ccccc12` [1d], in test [1], the maximal effect (Emax) is reported as 53%.
For `CCc1cc(CC)cc(C(=O)NNC(=O)Nc2cccc3ccccc23)c1` [1e], the maximum response (Emax) in test [1] is given as 6%.
Regarding `O=C(NNC(=O)c1ccc(F)cc1)Nc1cccc2ccccc12` [1g], in test [1], the EC50 is 0.44 µM and the maximum response (Emax) was 96%.
As to `COc1cc(C(=O)NNC(=O)Nc2cccc3ccccc23)cc(OC)c1OC` [1h], in test [1], the EC50 was 0.063 µM and the Emax is 76%.
Consider `O=C(NNC(=O)c1ccc(Oc2ccccc2)cc1)Nc1cccc2ccccc12` [1i], for which, in test [1], the EC50 is 2.1 µM and the maximal response (Emax) is 61%.
On to `COc1cc(OC)cc(C(=O)NNC(=O)Nc2ccc(Br)c3ccccc23)c1` [1j], for which the Emax in test [1] is recorded as 73%.
In the case of `COc1cc(OC)cc(C(=O)NNC(=O)Nc2ccc(C#N)c3ccccc23)c1` [1k], the Emax in test [1] is 20%.
Consider `COc1cc(OC)cc(C(=O)NNC(=O)Nc2c(C)ccc3ccccc23)c1` [1l], for which, in test [1], the EC50 is 0.086 µM and the Emax is reported as 86%.
`COc1cc(OC)cc(C(=O)NNC(=O)Nc2ccc(Cl)c3ccccc23)c1` [1m]: the maximum response (Emax) in test [1] is 64%.
On to `COc1cc(OC)cc(C(=O)NNC(=O)Nc2cccc3c(Br)cccc23)c1` [1n], for which, in test [1], the maximum response (Emax) was 54%.
Consider `COc1cc(OC)cc(C(=O)NNC(=O)Nc2cccc3ccc(OC)cc23)c1` [1o], for which the maximal response (Emax) in test [1] was 50%.
For `COc1cc(CNNC(=O)Nc2cccc3ccccc23)cc(OC)c1` [1p], the 50% effective concentration (EC50) in test [1] is more than 10 µM.
Turning to `COc1cc(OC)cc(C(=O)CNC(=O)Nc2cccc3ccccc23)c1` [1q], in test [1], the EC50 was 3.3 µM and the maximum response (Emax) is recorded as 100%.
With `COc1cc(OC)cc(C(=O)NCC(=O)Nc2cccc3ccccc23)c1` [1r], in test [1], the concentration giving a half-maximal response (EC50) is 0.18 µM and the maximal response (Emax) is reported as 98%.
Regarding `COc1cc(OC)cc(C(=O)N(C)NC(=O)Cc2cccc3ccccc23)c1` [1t], in test [1], the EC50 was 2.5 µM and the Emax is 74%.
With `COc1cc(OC)cc(C(=O)NN(C)C(=O)Cc2cccc3ccccc23)c1` [1u], in test [1], the concentration giving a half-maximal response (EC50) was 5.1 µM and the maximum response (Emax) is on record as 84%.
Take `C[C@H](NC(=O)CNC(=O)c1ccccc1)c1ccccc1` [7a]: the maximal response (Emax) in test [2] was 130%.
With `C[C@H](NC(=O)CNC(=O)c1ccc(Cl)cc1)c1ccccc1` [7d], in test [2], the Emax is 117%.
Regarding `Cc1cccc(C(=O)NCC(=O)N[C@@H](C)c2ccccc2)c1` [7e], the maximal effect (Emax) in test [2] is 137%.
In the case of `C[C@H](NC(=O)CNC(=O)c1cccc(C#N)c1)c1ccccc1` [7f], the maximum response (Emax) in test [2] is 129%.
Turning to `C[C@H](NC(=O)CNC(=O)c1cccc(F)c1)c1ccccc1` [7g], the Emax in test [2] is 118%.
On to `COc1cccc(C(=O)NCC(=O)N[C@@H](C)c2ccccc2)c1` [7h], for which the Emax in test [2] is listed as 146%.
Consider `C[C@H](NC(=O)CNC(=O)c1cccc(C(F)(F)F)c1)c1ccccc1` [7i], for which the Emax in test [2] was 134%.
In the case of `C[C@H](NC(=O)CNC(=O)c1cccc(OC(F)(F)F)c1)c1ccccc1` [7j], in test [2], the maximal response (Emax) is given as 129%.
As for `C[C@H](NC(=O)CNC(=O)c1cccc(Cl)c1Cl)c1ccccc1` [7k], the Emax in test [2] is on record as 113%.
`C[C@H](NC(=O)CNC(=O)c1ccc(Cl)c(Cl)c1)c1ccccc1` [7l]: in test [2], the maximal response (Emax) was 106%.
Regarding `C[C@H](NC(=O)CNC(=O)c1cc(Cl)ccc1Cl)c1ccccc1` [7m], the maximal effect (Emax) in test [2] was 139%.
As to `C[C@H](NC(=O)CNC(=O)c1cc(Cl)cc(Cl)c1)c1ccccc1` [7n], in test [2], the Emax is listed as 119%.
For the compound `C[C@H](NC(=O)CNC(=O)c1cc(F)cc(Cl)c1)c1ccccc1` [7o], the Emax in test [2] is 124%.
Regarding `C[C@H](NC(=O)CNC(=O)c1cc(Cl)cc(Br)c1)c1ccccc1` [7p], the Emax in test [2] was 113%.
In the case of `COc1cc(OC)cc(C(=O)NCC(=O)N[C@@H](C)c2ccccc2)c1` [7q], the Emax in test [2] is listed as 149%.
In turn, `CCN1C(C)=NC2C=C(C(=O)NNC(=O)c3c(-c4ccccc4)noc3C)C=CC21` (stereo not drawn) [DL83] showed an EC50 in test [3] (values in text) of more than 10 µM.
On to `CCn1c(C)nc2cc(C(=O)NNC(=O)Cc3coc4ccc5ccccc5c34)ccc21` [DL85], for which the EC50 in test [3] (setting [4]) and in test [3] (values in text) was 1.02 µM in each case. In test [3], this compound showed a maximal response (Emax) of 95%.
Take `COc1cc(OC)cc(C(=O)NNC(=O)c2cccc3ccccc23)c1` [DL96]: the “GPR139 agonist activity (in words)” value in test [3] (CHO-GPR139) was “loss of activity; also recorded: Inactive”.
Compound `CN(C(=O)CNC(=O)c1ccc2c(c1)OCO2)C1CCc2ccccc21` (stereo not drawn) [DL131] gave an EC50 in test [3] (setting [4]) of 1.09 µM. The compound also returned a maximum response (Emax) in test [3] of 101%.
In turn, `O=C(CN1CCCc2ccccc21)NNC(=O)c1ccc2[nH]cnc2c1` [DL144] displayed an EC50 in test [3] (setting [4]) of 1.16 µM. This compound also gave a maximal response (Emax) in test [3] of 96%.
In the case of `CCn1c(C)nc2cc(C(=O)NNC(=O)CC(C)c3ccccc3)ccc21` (stereo not drawn) [DL146], the EC50 in test [3] (setting [4]) turned out to be 4.72 µM; in test [3] (values in Figure 5 and Supplementary Chart 1), 4.71 µM. Besides, the maximum response (Emax) in test [3] is 85%.
For the compound `C=C(C)c1cccc(C(C)(C)NC(=O)NNC(=O)c2ccc3c(c2)nc(C)n3CC)c1` [DL148], the EC50 in test [3] (setting [4]) is 1.22 µM. Moreover, the Emax in test [3] came out at 100%.
For `COc1cc(OC)cc(C(=O)NCCC(=O)N2CCCc3ccccc32)c1` [DL154] the same measures were 1.5 µM and 91%.
For `C[C@H](NC(=O)CNCc1cccc(Cl)c1)c1ccccc1` [compound 8], the EC50 in test [2] is more than 10 µM.
In the case of `C[C@H](NCCNC(=O)c1cccc(Cl)c1)c1ccccc1` [compound 9], in test [2], the EC50 was more than 10 µM.
Regarding `COc1cccc(C(=O)N[C@@H](C)C(=O)N[C@@H](C)c2ccccc2)c1` [compound 10], the Emax in test [2] was 143%.
Turning to `COc1cccc(C(=O)N[C@H](C)C(=O)N[C@@H](C)c2ccccc2)c1` [compound 11], the Emax in test [2] is listed as 88%.
As to `COc1cccc(C(=O)N[C@@H](CO)C(=O)N[C@@H](C)c2ccccc2)c1` [compound 12], the Emax in test [2] is listed as 107%.
